The numbers were not newly measured in US6576223B2, “Insect repellent” (Karl Engelhard Fabrik Pharm Praparate GmbH & Co. KG., priority 1997, dated 2003), which cites them from elsewhere.

The conditions of data set [1]: concentrations of DEET exceeding 30%; monograph Diethyltoluamid, Bundesanzeiger No. 137.

In the case of `CCN(CC)C(=O)c1cccc(C)c1` [DEET, N,N-diethyl-m-toluamide], the period of effectiveness entry in the data set on insects (DEET as alcohol solution applied to the skin, known agents) is “about 5 hours”. In addition, the side effects result in data set [1] was “blistering, ulceration, and necroses can occur”.
On to polyethylene glycol 400 [PEG-400], for which the “repellent effect of the adjuvant itself” value in the data set on insects (adjuvant alone, EP 0 090 288) was “no repellent effect”.
